From patent US20230241050A1, “APPLICATIONS OF HPK1 KINASE INHIBITOR IN PREVENTING AND/OR TREATING ANIMAL PATHOGEN INFECTION” (ZHUHAI YUFAN BIOTECHNOLOGIES CO., LTD, priority 2020, published 2023)

What was measured:
[1] = test system: feline infectious peritonitis (FIP), feline coronavirus positive; assay: Treatment of a cat with recurrent feline infectious peritonitis (Example 1): daily clinical observation, body weight, chest X-ray; assay type: in vivo; settings: for Food intake: D0: Decreased intake - 3; for Mental state: D0: Listless - 3; for Defecation condition / Respiratory state: D0: Normal - 5; for Body temperature Afternoon: D0 value 38.5; for body weight: 2.5 kg at enrollment (D0)
Procedure: Lele, a British shorthair cat, 8 months old, female, unneutered, weighing 2.5 kg. The cat had symptoms of elevated body temperature, mental depression, anorexia, and enlarged abdominal circumference in January, 2020. One week later, the cat was admitted. On January 18, the cat was diagnosed with feline infectious peritonitis (FIP) positive. After being treated with GS-441524 for 3 days, the cat was then given furosemide, Synulox®, prednisolone and itraconazole (P.O., q24h, 10 mg/kg) for 1 month. The drugs were discontinued after ascites regressed. […] The cat was enrolled on April 8, and was treated with the drug of the present invention at 2.0 mg/kg (SC, q24h) on days 1-14 (D1-14). Proper supportive treatments were given at the same time, including adjuvant treatment such as Moringa (a hepatoprotective drug), Lysinphirst (lysine) and Doctor Dolittle® (lactoferrin).
The pharmaceutically active compound described above is a pure powder have the following structure. The compound was added to a 0.9% normal saline (50 mL of endotoxin-free water and 0.45 g of NaCl), and the resulting mixture was uniformly mixed and filtered through a filter membrane to give a clarified solution. The diluted compound was stored in a plastic-sealed sterile vial, stored in a refrigerator at 4° C., gently brought to room temperature before injection, and administered using a disposable syringe. The injection ranged across the back, starting from 2 cm posterior to the scapula to the middle of the lumbar spine, half of the distance of the adjacent chest to flank.
The treatment was given by injection in the morning every day, body temperature, appetite, mental state and respiratory state were measured and evaluated at 15:00 pm, and urination and defecation conditions were recorded.
The body weight increased by 9% during and after the treatment.

[2] = test system: feline infectious peritonitis (FIP); assay: Clinical survival of cats with clinically confirmed FIP, treatment group vs control group (Example 2); assay type: in vivo, cat; settings: 14 days; 2.0 mg/kg SC q24h D1-D14 plus supportive treatment, 7 cats vs 8 control cats; both pre-treated with GS-441524 for 3 days; Log Rank and Breslow tests, P < 0.05
Description: A total of 15 cats with clinically confirmed FIP were enrolled, with hydrothorax/ascites, positive CT value by PCR, and no neurological symptoms. 8 cats were allocated into the control group, and 7 cats were allocated into the treatment group.
The groups were pre-treated with GS-441524 for 3 days. For the control group, necessary supportive treatment was given on D1-D14. For the treatment group, after 3 days of observation, necessary supportive treatment and the drug of the present invention (2.0 mg/kg, SC, q24 h) were given on D1-D14.
The occurrence of death or neurological symptoms was judged as clinical death, and the clinical survival curve was plotted after 14 days.

CN1CCC(c2ncc(-c3cnc(N)c(OCc4cccc(C#CC(C)(C)O)c4)c3)s2)CC1 [the drug of the present invention, 4-(3-{2-amino-5-[2-(1-methyl-piperidin-4-yl)thiazol-5-yl]pyridin-3-yloxymethyl}phenyl)-2-methyl-but-3-yn-2-ol]
Food intake ([1]; D1 (4-9), 2.0 mg/kg SC q24h): Decreased intake - 3
Mental state ([1]; D1 (4-9), 2.0 mg/kg SC q24h): Slightly improved - 3.5
Defecation condition ([1]; D1 (4-9), 2.0 mg/kg SC q24h): Normal
Respiratory state ([1]; D1 (4-9), 2.0 mg/kg SC q24h): Normal
Body temperature Afternoon ([1]; D1 (4-9), 2.0 mg/kg SC q24h): 38.6 °C
Food intake ([1]; D2 (4-10), 2.0 mg/kg SC q24h): Improved - 4
Mental state ([1]; D2 (4-10), 2.0 mg/kg SC q24h): Improved - 4
Defecation condition ([1]; D2 (4-10), 2.0 mg/kg SC q24h): Normal
Respiratory state ([1]; D2 (4-10), 2.0 mg/kg SC q24h): Normal
Body temperature Afternoon ([1]; D2 (4-10), 2.0 mg/kg SC q24h): 38.1 °C
Food intake ([1]; D3 (4-11), 2.0 mg/kg SC q24h): Good - 5
Mental state ([1]; D3 (4-11), 2.0 mg/kg SC q24h): Good - 5
Defecation condition ([1]; D3 (4-11), 2.0 mg/kg SC q24h): Normal
Respiratory state ([1]; D3 (4-11), 2.0 mg/kg SC q24h): Normal
Body temperature Afternoon ([1]; D3 (4-11), 2.0 mg/kg SC q24h): 38 °C
Food intake ([1]; D4 (4-12), 2.0 mg/kg SC q24h): Good
Mental state ([1]; D4 (4-12), 2.0 mg/kg SC q24h): Good
Defecation condition ([1]; D4 (4-12), 2.0 mg/kg SC q24h): Normal
Respiratory state ([1]; D4 (4-12), 2.0 mg/kg SC q24h): Normal
Body temperature Afternoon ([1]; D4 (4-12), 2.0 mg/kg SC q24h): 38.3 °C
Food intake ([1]; D5 (4-13), 2.0 mg/kg SC q24h): Good
Mental state ([1]; D5 (4-13), 2.0 mg/kg SC q24h): Good
Defecation condition ([1]; D5 (4-13), 2.0 mg/kg SC q24h): Normal
Respiratory state ([1]; D5 (4-13), 2.0 mg/kg SC q24h): Normal
Body temperature Afternoon ([1]; D5 (4-13), 2.0 mg/kg SC q24h): 38.3 °C
Food intake ([1]; D6 (4-14), 2.0 mg/kg SC q24h): Good
Mental state ([1]; D6 (4-14), 2.0 mg/kg SC q24h): Good
Defecation condition ([1]; D6 (4-14), 2.0 mg/kg SC q24h): Normal
Respiratory state ([1]; D6 (4-14), 2.0 mg/kg SC q24h): Normal
Body temperature Afternoon ([1]; D6 (4-14), 2.0 mg/kg SC q24h): 38.3 °C
body weight ([1]; D7 (4-15), 2.0 mg/kg SC q24h): 2.75 kg body weight
Food intake ([1]; D7 (4-15), 2.0 mg/kg SC q24h): Good
Mental state ([1]; D7 (4-15), 2.0 mg/kg SC q24h): Good
Defecation condition ([1]; D7 (4-15), 2.0 mg/kg SC q24h): Normal
Respiratory state ([1]; D7 (4-15), 2.0 mg/kg SC q24h): Normal
Body temperature Afternoon ([1]; D7 (4-15), 2.0 mg/kg SC q24h): 38.1 °C
Food intake ([1]; D8 (4-16), 2.0 mg/kg SC q24h): Good
Mental state ([1]; D8 (4-16), 2.0 mg/kg SC q24h): Good
Defecation condition ([1]; D8 (4-16), 2.0 mg/kg SC q24h): Normal
Respiratory state ([1]; D8 (4-16), 2.0 mg/kg SC q24h): Normal
Body temperature Afternoon ([1]; D8 (4-16), 2.0 mg/kg SC q24h): 38 °C
Food intake ([1]; D9 (4-17), 2.0 mg/kg SC q24h): Good
Mental state ([1]; D9 (4-17), 2.0 mg/kg SC q24h): Good
Defecation condition ([1]; D9 (4-17), 2.0 mg/kg SC q24h): Normal
Respiratory state ([1]; D9 (4-17), 2.0 mg/kg SC q24h): Normal
Body temperature Afternoon ([1]; D9 (4-17), 2.0 mg/kg SC q24h): 38.2 °C
Food intake ([1]; D10 (4-18), 2.0 mg/kg SC q24h): Good
Mental state ([1]; D10 (4-18), 2.0 mg/kg SC q24h): Good
Defecation condition ([1]; D10 (4-18), 2.0 mg/kg SC q24h): Normal
Respiratory state ([1]; D10 (4-18), 2.0 mg/kg SC q24h): Normal
Body temperature Afternoon ([1]; D10 (4-18), 2.0 mg/kg SC q24h): 38.3 °C
Food intake ([1]; D11 (4-19), 2.0 mg/kg SC q24h): Good
Mental state ([1]; D11 (4-19), 2.0 mg/kg SC q24h): Good
Defecation condition ([1]; D11 (4-19), 2.0 mg/kg SC q24h): Normal
Respiratory state ([1]; D11 (4-19), 2.0 mg/kg SC q24h): Normal
Body temperature Afternoon ([1]; D11 (4-19), 2.0 mg/kg SC q24h): 38.4 °C
Food intake ([1]; D12 (4-20), 2.0 mg/kg SC q24h): Good
Mental state ([1]; D12 (4-20), 2.0 mg/kg SC q24h): Good
Defecation condition ([1]; D12 (4-20), 2.0 mg/kg SC q24h): Normal
Respiratory state ([1]; D12 (4-20), 2.0 mg/kg SC q24h): Normal
Body temperature Afternoon ([1]; D12 (4-20), 2.0 mg/kg SC q24h): 38.5 °C
Body temperature Morning ([1]; D13 (4-21), 2.0 mg/kg SC q24h): 38.9 °C
Food intake ([1]; D13 (4-21), 2.0 mg/kg SC q24h): Good
Mental state ([1]; D13 (4-21), 2.0 mg/kg SC q24h): Good
Defecation condition ([1]; D13 (4-21), 2.0 mg/kg SC q24h): Normal
Respiratory state ([1]; D13 (4-21), 2.0 mg/kg SC q24h): Normal
Body temperature Afternoon ([1]; D13 (4-21), 2.0 mg/kg SC q24h): 38.5 °C
Body temperature Morning ([1]; D14 (4-22), 2.0 mg/kg SC q24h): 38.4 °C
body weight ([1]; D14 (4-22), 2.0 mg/kg SC q24h): 2.75 kg body weight
Food intake ([1]; D14 (4-22), 2.0 mg/kg SC q24h): Good
Mental state ([1]; D14 (4-22), 2.0 mg/kg SC q24h): Good
Defecation condition ([1]; D14 (4-22), 2.0 mg/kg SC q24h): Normal
Respiratory state ([1]; D14 (4-22), 2.0 mg/kg SC q24h): Normal
Body temperature Afternoon ([1]; D14 (4-22), 2.0 mg/kg SC q24h): 38.4 °C
clinical response (appetite, mental state, weight) ([1]; after 2 weeks of treatment, 2.0 mg/kg SC q24h): remarkable clinical response with improved appetite and mental state, and weight gain
body weight increase ([1]; during and after the treatment (D1-14, 2.0 mg/kg SC q24h)): 9%
hydrothorax (chest X-ray) ([1]; since about 7 days after the treatment, 2.0 mg/kg SC q24h): completely regressed
body temperature maintained in the normal range ([1]; throughout the treatment (D1-14, 2.0 mg/kg SC q24h), no fever at enrollment): 38-38.5 °C
clinical survival curve (death or neurological symptoms = clinical death), treatment group vs control group [2]: significant difference
